Results on 1 substance are retold here after US20070149456A1, “Epithelial sodium channel inhibiting agents and uses therefor” (University of Pittsburgh, priority 2005, published 2007).

In this experiment the target is T1, wild-type ENaC co-expressed with prostasin (Mus musculus, UniProt Q61180+Q9WU38+Q9WU39).
T1 construct: expressed in transfected cells; host or cells: Xenopus laevis oocytes (cRNA co-injection)
The experiment in a line: Two-electrode voltage clamp in oocytes co-expressing ENaC and prostasin. The class given is cell-based. The conditions noted are these: α-26 1 μM and 10 μM, aprotinin 1 μM present. The source says:
Oocyte Expression—cRNAs for α, β, γ mouse ENaC (wild-type and mutant) subunits and mouse prostasin were synthesized with T3 or T7 m-Message mMachineTM (Ambion, Austin, Tex.). Subunits carrying furin cleavage consensus site mutations and the corresponding wild-type subunits have amino-terminal HA and carboxyl-terminal V5 tags (Hughey, R. P., Bruns, J. B., Kinlough, C. L., Harkleroad, K. L., Tong, Q., Carattino, M. D., Johnson, J. P., Stockand, J. D., and Kleyman, T. R. (2004) J. Biol. Chem. 279, 18111-18114 18). Stage V-VI Xenopus laevis oocytes were pretreated with 1.5 mg/ml of type IV collagenase and injected with 0.5-2 ng of cRNA/subunit. Injected oocytes were maintained as previously reported (Carattino, M. D., Hill, W. G., and Kleyman, T. R. (2003), Arachidonic Acid Regulates Surface Expression of Epithelial Sodium Channels, J Biol. Chem. 278, 36202-36213 29).
Two-electrode Voltage Clamp—Two-electrode voltage clamp (TEV) was performed as previously described (Carattino, M. D., Hill, W. G., and Kleyman, T. R. (2003) J Biol. Chem. 278, 36202-36213 29). The extracellular solution (TEV solution) was (in mM): 110 NaCl, 2 KCl, 1.54 CaCl2, 10 HEPES, pH 7.4, or otherwise as indicated. […] ENaC-mediated whole cell Na^+ currents, at −60 mV,were defined as the amiloride-sensitive component of the current. […]
(In general: In two-electrode clamp one electrode senses voltage and the other passes current.)

T1 sequence (Q61180 1-205): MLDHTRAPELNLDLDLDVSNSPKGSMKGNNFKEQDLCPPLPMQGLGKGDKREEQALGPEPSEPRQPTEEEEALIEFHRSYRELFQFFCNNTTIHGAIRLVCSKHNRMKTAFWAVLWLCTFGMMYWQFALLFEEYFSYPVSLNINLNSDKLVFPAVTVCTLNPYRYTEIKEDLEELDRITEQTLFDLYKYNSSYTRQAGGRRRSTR
T1 sequence (Q61180 232-699): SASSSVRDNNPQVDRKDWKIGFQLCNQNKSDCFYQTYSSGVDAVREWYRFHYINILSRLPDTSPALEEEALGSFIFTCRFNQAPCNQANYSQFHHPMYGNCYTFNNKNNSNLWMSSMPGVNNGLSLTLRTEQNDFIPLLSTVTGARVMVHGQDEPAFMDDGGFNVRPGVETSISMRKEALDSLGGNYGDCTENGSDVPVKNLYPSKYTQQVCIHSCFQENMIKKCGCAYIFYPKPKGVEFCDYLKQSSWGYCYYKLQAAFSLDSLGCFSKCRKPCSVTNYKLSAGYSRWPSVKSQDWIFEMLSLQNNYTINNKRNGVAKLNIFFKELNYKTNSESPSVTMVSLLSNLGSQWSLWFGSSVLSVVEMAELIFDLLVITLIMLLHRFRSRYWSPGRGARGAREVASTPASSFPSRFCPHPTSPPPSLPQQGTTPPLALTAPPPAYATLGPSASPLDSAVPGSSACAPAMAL
T1 sequence (Q9WU38 whole entry): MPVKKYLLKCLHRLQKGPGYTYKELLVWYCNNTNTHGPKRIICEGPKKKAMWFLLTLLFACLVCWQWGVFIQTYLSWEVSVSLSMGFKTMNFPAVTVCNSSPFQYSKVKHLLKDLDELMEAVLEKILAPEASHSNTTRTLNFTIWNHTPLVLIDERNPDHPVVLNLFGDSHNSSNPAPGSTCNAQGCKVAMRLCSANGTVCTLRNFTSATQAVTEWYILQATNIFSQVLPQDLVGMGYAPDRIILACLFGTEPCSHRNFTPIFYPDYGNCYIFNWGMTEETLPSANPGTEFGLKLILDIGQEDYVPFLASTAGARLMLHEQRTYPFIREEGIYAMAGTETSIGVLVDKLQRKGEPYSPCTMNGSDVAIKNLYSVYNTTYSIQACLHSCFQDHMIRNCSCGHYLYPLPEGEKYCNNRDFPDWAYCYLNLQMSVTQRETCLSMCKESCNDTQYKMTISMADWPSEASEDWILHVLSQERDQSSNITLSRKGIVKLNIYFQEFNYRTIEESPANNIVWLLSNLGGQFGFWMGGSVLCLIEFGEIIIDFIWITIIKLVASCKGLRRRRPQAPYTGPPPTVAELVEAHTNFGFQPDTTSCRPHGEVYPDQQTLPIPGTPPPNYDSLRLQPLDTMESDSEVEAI
T1 sequence (Q9WU39 1-143): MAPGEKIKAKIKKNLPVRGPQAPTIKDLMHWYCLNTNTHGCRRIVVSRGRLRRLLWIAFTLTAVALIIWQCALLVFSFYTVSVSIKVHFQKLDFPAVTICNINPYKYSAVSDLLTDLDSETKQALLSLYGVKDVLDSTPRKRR
T1 sequence (Q9WU39 187-655): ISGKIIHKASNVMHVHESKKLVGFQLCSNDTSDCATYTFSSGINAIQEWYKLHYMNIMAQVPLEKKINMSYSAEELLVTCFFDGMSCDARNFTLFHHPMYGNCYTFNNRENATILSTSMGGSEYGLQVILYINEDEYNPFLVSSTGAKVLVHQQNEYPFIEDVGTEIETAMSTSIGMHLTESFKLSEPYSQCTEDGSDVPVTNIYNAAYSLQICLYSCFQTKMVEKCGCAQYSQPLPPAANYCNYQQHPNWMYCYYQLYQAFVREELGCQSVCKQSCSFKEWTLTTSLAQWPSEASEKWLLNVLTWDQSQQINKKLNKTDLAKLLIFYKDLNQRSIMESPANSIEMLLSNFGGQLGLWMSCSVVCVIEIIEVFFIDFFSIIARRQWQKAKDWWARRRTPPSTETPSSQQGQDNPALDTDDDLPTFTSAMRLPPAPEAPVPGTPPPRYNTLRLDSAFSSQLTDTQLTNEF

On to “Ac-DLRGALPHPLQRLRTPPPPNPARSAR-NH2 [α-26]”, for which the “effect of prostasin co-expression on α-26-dependent inhibition of ENaC” value is “significantly reduced the efficacy”.
